Data taken from patent US12479834B2, “Phenol compound or salt thereof” (TAIHO PHARMACEUTICAL CO., LTD., priority 2019, dated 2025).

How the values were obtained:
G12C K-Ras4B (1-169) = target: T1, G12C K-Ras4B (1-169) (Homo sapiens, UniProt P01116, G12C); assay: Binding to KRAS G12C mutant, compound binding rate by LC-MS; conditions: final compound concentration 2 μM, 1 μM protein, 2 hours at 25° C.
T1 construct: G12C K-Ras4B (1-169) protein, which was a KRAS G12C mutant; His tag (N, cleaved yes); made in house; host or cells: E. coli BL21 (DE3)
In short: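 Covalent labelling at 2 μM final compound on a mix of 1 μM each wild-type and G12C K-Ras4B (1-169) (E. coli-expressed, tag removed) in 1×TBS, 0.1 mM TCEP, 2 h at 25° C., quenched with formic acid. Intact-protein ESI Q-TOF LC-MS; binding rate from adduct vs unbound protein signal, graded A–E in 20% bands.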

KRAS G12C mutant = target: T2, KRAS G12C mutant (Homo sapiens, UniProt P01116, G12C); assay: Inhibition of SOS1-mediated nucleotide (GDP-GTP) exchange reaction of KRAS G12C mutant, BODIPY FL GDP fluorescence; type: biochemical; conditions: preincubated 25° C. 4 hours with 25 nM KRAS G12C bound with BODIPY FL GDP; SOS1 100 nM, GppNHp 1 μM, 30 minutes
T2 construct: 50 μM G12C K-Ras4B (1-169) protein and 1 mM BODIPY® FL GDP; His tag (N, cleaved yes); made in house; host or cells: E. coli BL21 (DE3)
In short: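 KRAS G12C (1-169) loaded with BODIPY FL GDP (25 nM) was preincubated with compound (5% DMSO) for 4 h at 25 °C. Exchange then ran 30 min with SOS1 (564-1049, 100 nM) and 1 µM GppNHp. IC50 came from the 485/520 nm fluorescence change, normalized to DMSO and no-GppNHp controls.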

NCI-H358 cells = assay: Growth inhibition of KRAS-G12C mutant cell line NCI-H358 (CellTiter-Glo 2.0); type: cell-based; conditions: Homo sapiens, 72 h; NCI-H358, 3-day culture with compound
Experimental: KRAS-G12C mutant human lung cancer cell line NCI-H358 cells (ATCC, Cat #: CRL-5807) were suspended in RPMI1640 medium (manufactured by Fujifilm Wako Pure Chemical Corp.) containing 10% fetal bovine serum. The cell suspension was seeded at 500 cells/well into the wells of a 384-well flat-bottom microplate and cultured at 37° C. for 1 day in an incubator containing 5% CO2. The compound of the present invention was dissolved in DMSO and diluted with DMSO such that the concentration of the test compound was 500 times the final concentration. The solution of the test compound in DMSO was diluted with the medium used for suspending the cells, and the resultant was added to each well of the cell culture plate such that the final concentration of DMSO was 0.2%, followed by culture at 37° C. for another 3 days in an incubator containing 5% CO2.
Growth inhibition rate (%)=(C−T)/(C)×100 • T: the emission intensity in a well supplemented with the test compound. • C: the emission intensity in a well not supplemented with the test compound.

Row | Compound | binding rate for G12C K-Ras4B (1-169) (G12C K-Ras4B (1-169)) | IC50 (KRAS G12C mutant) [nM] | IC50 (NCI-H358 cells) [nM]
1 | C=CC(=O)N1CC(NC(=O)c2cnc(CNc3cc(C(C)(C)C)c(Cl)cc3O)n2CCOC)C1 [Example 37, N-(1-Acryloylazetidin-3-yl)-2-(((5-(tert-butyl)-4-chloro-2-hydroxyphenyl)amino)methyl)-1-(2-methoxyethyl)-1H-imidazole-5-carboxamide] | A (80% or more) | 13 | 321
2 | C=CC(=O)N1CC(NC(=O)c2c(C)nc(CNc3cc(C(C)(C)C)c(C)cc3O)n2C)C1 [Example 76, N-(1-Acryloylazetidin-3-yl)-2-(((5-(tert-butyl)-2-hydroxy-4-methylphenyl)amino)methyl)-1,4-dimethyl-1H-imidazole-5-carboxamide] | A (80% or more) | 17 | 399
3 | C=CC(=O)N1CC(NC(=O)c2c(C)nc(CNc3cc(C(C)(C)C)c(Cl)cc3O)n2Cc2cccnc2)C1 [Example 46, N-(1-Acryloylazetidin-3-yl)-2-(((5-(tert-butyl)-4-chloro-2-hydroxyphenyl)amino)methyl)-4-methyl-1-(pyridin-3-ylmethyl)-1H-imidazole-5-carboxamide] | A (80% or more) | 5 | 916
4 | C=CC(=O)N1CC(N(CC)C(=O)c2ccc(CNc3cc(C(C)(C)C)c(Cl)cc3O)o2)C1 [Example 5, N-(1-Acryloylazetidin-3-yl)-5-(((5-(tert-butyl)-4-chloro-2-hydroxyphenyl)amino)methyl)-N-ethylfuran-2-carboxamide] | A (80% or more) | 12 | 699
5 | C=CC(=O)N1CC(N(C)C(=O)c2nc(CNc3cc(C(C)(C)C)c(Cl)cc3O)cs2)C1 [Example 29, N-(1-Acryloylazetidin-3-yl)-4-(((5-(tert-butyl)-4-chloro-2-hydroxyphenyl)amino)methyl)-N-methylthiazole-2-carboxamide] | A (80% or more) | 12 | 1110
6 | C=CC(=O)N1CC(NC(=O)c2c(C)nc(CNc3cc(C(C)(C)C)c(Cl)cc3O)n2C)C1 [Example 39, N-(1-Acryloylazetidin-3-yl)-2-(((5-(tert-butyl)-4-chloro-2-hydroxyphenyl)amino)methyl)-1,4-dimethyl-1H-imidazole-5-carboxamide] | A (80% or more) | 5 | 112
7 | C=CC(=O)N1CC(NC(=O)c2ccc(CNc3cc(C(C)(C)C)c(Cl)cc3O)o2)C1 [Example 1, N-(1-Acryloylazetidin-3-yl)-5-(((5-(tert-butyl)-4-chloro-2-hydroxyphenyl)amino)methyl)furan-2-carboxamide] | A (80% or more) | 326 | 4110
8 | C=CC(=O)N1CC(NC(=O)c2cnc(Cc3cc(C(C)(C)C)c(Cl)cc3O)n2C)C1 [Example 97, N-(1-Acryloylazetidin-3-yl)-2-(5-(tert-butyl)-4-chloro-2-hydroxybenzyl)-1-methyl-1H-imidazole-5-carboxamide] | A (80% or more) | 22 | 683
9 | C=CC(=O)N1CC(NC(=O)c2c(C)nc(CNc3cc(C(C)(C)C)c(Cl)cc3O)n2C2CCCC2)C1 [Example 45, N-(1-Acryloylazetidin-3-yl)-2-(((5-(tert-butyl)-4-chloro-2-hydroxyphenyl)amino)methyl)-1-cyclopentyl-4-methyl-1H-imidazole-5-carboxamide] | A (80% or more) | 16 | 576
10 | C=CC(=O)N1CC(NC(=O)c2sc(CNc3cc(C(C)(C)C)c(Cl)cc3O)nc2C)C1 [Example 20, N-(1-Acryloylazetidin-3-yl)-2-(((5-(tert-butyl)-4-chloro-2-hydroxyphenyl)amino)methyl)-4-methylthiazole-5-carboxamide] | A (80% or more) | 13 | 658
11 | C=CC(=O)N1CC(NC(=O)c2c(C)nc(Cc3cc(C(C)(C)C)c(Cl)cc3O)n2C)C1 [Example 92, N-(1-Acryloylazetidin-3-yl)-2-(5-(tert-butyl)-4-chloro-2-hydroxybenzyl)-1,4-dimethyl-1H-imidazole-5-carboxamide] | B (60% or more and less than 80%) | 55 | 1100
12 | C=CC(=O)N1CC(NC(=O)c2c(C)nn(Cc3cc(C(C)(C)C)c(Cl)cc3O)c2C)C1 [Example 96, N-(1-Acryloylazetidin-3-yl)-1-(5-(tert-butyl)-4-chloro-2-hydroxybenzyl)-3,5-dimethyl-1H-pyrazole-4-carboxamide] | A (80% or more) | 65 | 1360
13 | C=CC(=O)N1CC(NC(=O)c2c(C)nc(CNc3cc(C(C)(C)C)c(Cl)cc3O)n2CCC)C1 [Example 44, N-(1-Acryloylazetidin-3-yl)-2-(((5-(tert-butyl)-4-chloro-2-hydroxyphenyl)amino)methyl)-4-methyl-1-propyl-1H-imidazole-5-carboxamide] | A (80% or more) | 9 | 511
14 | C=CC(=O)N1CC(NC(=O)c2c(C)nc(CNc3cc(C(C)(C)C)c(Cl)cc3O)n2CC)C1 [Example 41, N-(1-Acryloylazetidin-3-yl)-2-(((5-(tert-butyl)-4-chloro-2-hydroxyphenyl)amino)methyl)-1-ethyl-4-methyl-1H-imidazole-5-carboxamide] | A (80% or more) | 8 | 281
15 | C=CC(=O)N1CC(N(C)C(=O)c2ccc(CNc3cc(C(C)(C)C)c(Cl)cc3O)o2)C1 [Example 4, N-(1-Acryloylazetidin-3-yl)-5-(((5-(tert-butyl)-4-chloro-2-hydroxyphenyl)amino)methyl)-N-methylfuran-2-carboxamide] | A (80% or more) | 11 | 1170
16 | C=CC(=O)N1CC(NC(=O)c2c(C)nc(CNc3cc(C(C)(C)C)c(Cl)cc3O)n2CCCC)C1 [Example 43, N-(1-Acryloylazetidin-3-yl)-1-butyl-2-(((5-(tert-butyl)-4-chloro-2-hydroxyphenyl)amino)methyl)-4-methyl-1H-imidazole-5-carboxamide] | A (80% or more) | 7 | 351
17 | C=CC(=O)N1CC(NC(=O)c2c(C)nc(CNc3cc(C(C)(C)C)c(Cl)cc3O)n2Cc2ccccc2)C1 [Example 40, N-(1-Acryloylazetidin-3-yl)-1-benzyl-2-(((5-(tert-butyl)-4-chloro-2-hydroxyphenyl)amino)methyl)-4-methyl-1H-imidazole-5-carboxamide] | A (80% or more) | 13 | 535
